Test results taken from patent US10167262B2, “Herbicidal substituted 3-arylpyrazoles” (FMC CORPORATION, priority 2014, dated 2019).

Experiments:
Experiment in all cases: Test A pre-/postemergence greenhouse herbicide test, visual injury rating 0-100
Type in all cases: in vivo
[1] = test system: barnyardgrass (Echinochloa crus-galli)
Text: (§1) Seeds of plant species selected from barnyardgrass (Echinochloa crus-galli), large (Lg) crabgrass (Digitaria sanguinalis), giant foxtail (Setaria faberii), morningglory (Ipomoea spp.), pigweed (Amaranthus retroflexus), velvetleaf (Abutilon theophrasti), wheat (Triticum aestivum), and corn (Zea mays) were planted into a blend of loam soil and sand and treated preemergence with a directed soil spray using test chemicals formulated in a non-phytotoxic solvent mixture which included a surfactant. At the same time these species were also treated with postemergence applications of test chemicals formulated in the same manner. Plants ranged in height from 2 to 10 cm and were in the one- to two-leaf stage for the postemergence treatment. Treated plants and untreated controls were maintained in a greenhouse for approximately 10 days, after which time all treated plants were compared to untreated controls and visually evaluated for injury. Plant response ratings, summarized in Table A, are based on a 0 to 100 scale where 0 is no effect and 100 is complete control. A dash (-) response means no test result.

corn (Zea mays) = test system: corn (Zea mays)
Text: as §1

[2] = test system: giant foxtail (Setaria faberii)
Text: as §1

[3] = test system: large (Lg) crabgrass (Digitaria sanguinalis)
Text: as §1

[4] = test system: morningglory (Ipomoea spp.)
Text: as §1

[5] = test system: pigweed (Amaranthus retroflexus)
Text: as §1

[6] = test system: velvetleaf (Abutilon theophrasti)
Text: as §1

[7] = test system: wheat (Triticum aestivum)
Text: as §1

**Q.** With `Clc1cc(Cl)cc(-c2n[nH]cc2C2(c3ccccc3)SCCCS2)c1` [Compound 63] as the compound, how does the “Plant response rating (0 to 100 scale), Barnyardgrass” value ([1]; Postemergence, 125 g ai/ha) read?
**A.** 0

**Q.** What about the “Plant response rating (0 to 100 scale), Barnyardgrass” value ([1]; Postemergence, 500 g ai/ha) of the same compound?
**A.** 0

**Q.** What about the “Barnyardgrass plant response rating (0 = no effect, 100 = complete control)” value ([1]; Preemergence, 125 g ai/ha) of the same compound?
**A.** 0

**Q.** And the “Plant response rating (0 to 100 scale), Barnyardgrass” value ([1]; Preemergence, 500 g ai/ha)?
**A.** 0

**Q.** And the “Plant response rating (0 to 100 scale), Corn” value (corn (Zea mays); Postemergence, 125 g ai/ha)?
**A.** 0

**Q.** And the “Plant response rating (0 to 100 scale), Corn” value (corn (Zea mays); Postemergence, 500 g ai/ha)?
**A.** 0

**Q.** And the “Corn plant response rating (0 = no effect, 100 = complete control)” value (corn (Zea mays); Preemergence, 125 g ai/ha)?
**A.** 0

**Q.** What about the “Plant response rating (0 to 100 scale), Corn” value (corn (Zea mays); Preemergence, 500 g ai/ha) of the same compound?
**A.** 0

**Q.** And the “Plant response rating (0 to 100 scale), Foxtail, Giant” value ([2]; Postemergence, 125 g ai/ha)?
**A.** 0

**Q.** And the “Plant response rating (0 to 100 scale), Foxtail, Giant” value ([2]; Postemergence, 500 g ai/ha)?
**A.** 0

**Q.** And the “Foxtail, Giant plant response rating (0 = no effect, 100 = complete control)” value ([2]; Preemergence, 125 g ai/ha)?
**A.** 0

**Q.** What about the “Plant response rating (0 to 100 scale), Foxtail, Giant” value ([2]; Preemergence, 500 g ai/ha) of the same compound?
**A.** 0

**Q.** And the “Plant response rating (0 to 100 scale), Crabgrass, Large” value ([3]; Postemergence, 125 g ai/ha)?
**A.** 0

**Q.** And the “Plant response rating (0 to 100 scale), Crabgrass, Large” value ([3]; Postemergence, 500 g ai/ha)?
**A.** 0

**Q.** What about the “Crabgrass, Large plant response rating (0 = no effect, 100 = complete control)” value ([3]; Preemergence, 125 g ai/ha) of the same compound?
**A.** 0

**Q.** What about the “Plant response rating (0 to 100 scale), Crabgrass, Large” value ([3]; Preemergence, 500 g ai/ha) of the same compound?
**A.** 0

**Q.** What about the “Plant response rating (0 to 100 scale), Morningglory” value ([4]; Postemergence, 125 g ai/ha) of the same compound?
**A.** 0

**Q.** What about the “Plant response rating (0 to 100 scale), Morningglory” value ([4]; Postemergence, 500 g ai/ha) of the same compound?
**A.** 0

**Q.** And the “Morningglory plant response rating (0 = no effect, 100 = complete control)” value ([4]; Preemergence, 125 g ai/ha)?
**A.** 0

**Q.** What about the “Plant response rating (0 to 100 scale), Morningglory” value ([4]; Preemergence, 500 g ai/ha) of the same compound?
**A.** 0

**Q.** And the “Plant response rating (0 to 100 scale), Pigweed” value ([5]; Postemergence, 125 g ai/ha)?
**A.** 20

**Q.** What about the “Plant response rating (0 to 100 scale), Pigweed” value ([5]; Postemergence, 500 g ai/ha) of the same compound?
**A.** 80

**Q.** What about the “Pigweed plant response rating (0 = no effect, 100 = complete control)” value ([5]; Preemergence, 125 g ai/ha) of the same compound?
**A.** 0

**Q.** What about the “Plant response rating (0 to 100 scale), Pigweed” value ([5]; Preemergence, 500 g ai/ha) of the same compound?
**A.** 60

**Q.** And the “Plant response rating (0 to 100 scale), Velvetleaf” value ([6]; Postemergence, 125 g ai/ha)?
**A.** 10

**Q.** And the “Plant response rating (0 to 100 scale), Velvetleaf” value ([6]; Postemergence, 500 g ai/ha)?
**A.** 60

**Q.** What about the “Velvetleaf plant response rating (0 = no effect, 100 = complete control)” value ([6]; Preemergence, 125 g ai/ha) of the same compound?
**A.** 0

**Q.** What about the “Plant response rating (0 to 100 scale), Velvetleaf” value ([6]; Preemergence, 500 g ai/ha) of the same compound?
**A.** 0

**Q.** And the “Plant response rating (0 to 100 scale), Wheat” value ([7]; Postemergence, 125 g ai/ha)?
**A.** 0

**Q.** What about the “Plant response rating (0 to 100 scale), Wheat” value ([7]; Postemergence, 500 g ai/ha) of the same compound?
**A.** 0

**Q.** What about the “Wheat plant response rating (0 = no effect, 100 = complete control)” value ([7]; Preemergence, 125 g ai/ha) of the same compound?
**A.** 0

**Q.** `FC(F)(F)Cn1cc(C(=NNc2ccccc2)c2ccccc2)c(-c2cc(Cl)cc(Cl)c2)n1` [Compound 34] was tested. Which “Plant response rating (0 to 100 scale), Barnyardgrass” value ([1]; Postemergence, 125 g ai/ha) did it give?
**A.** 0

**Q.** And the “Plant response rating (0 to 100 scale), Barnyardgrass” value ([1]; Postemergence, 500 g ai/ha)?
**A.** 0

**Q.** What about the “Barnyardgrass plant response rating (0 = no effect, 100 = complete control)” value ([1]; Preemergence, 125 g ai/ha) of the same compound?
**A.** 0

**Q.** What about the “Plant response rating (0 to 100 scale), Barnyardgrass” value ([1]; Preemergence, 500 g ai/ha) of the same compound?
**A.** 0

**Q.** And the “Plant response rating (0 to 100 scale), Corn” value (corn (Zea mays); Postemergence, 125 g ai/ha)?
**A.** 0

**Q.** And the “Plant response rating (0 to 100 scale), Corn” value (corn (Zea mays); Postemergence, 500 g ai/ha)?
**A.** 0

**Q.** What about the “Corn plant response rating (0 = no effect, 100 = complete control)” value (corn (Zea mays); Preemergence, 125 g ai/ha) of the same compound?
**A.** 0

**Q.** What about the “Plant response rating (0 to 100 scale), Corn” value (corn (Zea mays); Preemergence, 500 g ai/ha) of the same compound?
**A.** 0

**Q.** And the “Plant response rating (0 to 100 scale), Foxtail, Giant” value ([2]; Postemergence, 125 g ai/ha)?
**A.** 0

**Q.** And the “Plant response rating (0 to 100 scale), Foxtail, Giant” value ([2]; Postemergence, 500 g ai/ha)?
**A.** 0

**Q.** And the “Foxtail, Giant plant response rating (0 = no effect, 100 = complete control)” value ([2]; Preemergence, 125 g ai/ha)?
**A.** 0

**Q.** What about the “Plant response rating (0 to 100 scale), Foxtail, Giant” value ([2]; Preemergence, 500 g ai/ha) of the same compound?
**A.** 0

**Q.** And the “Plant response rating (0 to 100 scale), Crabgrass, Large” value ([3]; Postemergence, 125 g ai/ha)?
**A.** 0

**Q.** What about the “Plant response rating (0 to 100 scale), Crabgrass, Large” value ([3]; Postemergence, 500 g ai/ha) of the same compound?
**A.** 0

**Q.** What about the “Crabgrass, Large plant response rating (0 = no effect, 100 = complete control)” value ([3]; Preemergence, 125 g ai/ha) of the same compound?
**A.** 0

**Q.** What about the “Plant response rating (0 to 100 scale), Crabgrass, Large” value ([3]; Preemergence, 500 g ai/ha) of the same compound?
**A.** 0

**Q.** What about the “Plant response rating (0 to 100 scale), Morningglory” value ([4]; Postemergence, 125 g ai/ha) of the same compound?
**A.** 0

**Q.** What about the “Plant response rating (0 to 100 scale), Morningglory” value ([4]; Postemergence, 500 g ai/ha) of the same compound?
**A.** 0

**Q.** And the “Morningglory plant response rating (0 = no effect, 100 = complete control)” value ([4]; Preemergence, 125 g ai/ha)?
**A.** 0

**Q.** And the “Plant response rating (0 to 100 scale), Morningglory” value ([4]; Preemergence, 500 g ai/ha)?
**A.** 0

**Q.** What about the “Plant response rating (0 to 100 scale), Pigweed” value ([5]; Postemergence, 125 g ai/ha) of the same compound?
**A.** 0

**Q.** And the “Plant response rating (0 to 100 scale), Pigweed” value ([5]; Postemergence, 500 g ai/ha)?
**A.** 20

**Q.** And the “Pigweed plant response rating (0 = no effect, 100 = complete control)” value ([5]; Preemergence, 125 g ai/ha)?
**A.** 0

**Q.** What about the “Plant response rating (0 to 100 scale), Pigweed” value ([5]; Preemergence, 500 g ai/ha) of the same compound?
**A.** 0

**Q.** What about the “Plant response rating (0 to 100 scale), Velvetleaf” value ([6]; Postemergence, 125 g ai/ha) of the same compound?
**A.** 10

**Q.** And the “Plant response rating (0 to 100 scale), Velvetleaf” value ([6]; Postemergence, 500 g ai/ha)?
**A.** 30

**Q.** What about the “Velvetleaf plant response rating (0 = no effect, 100 = complete control)” value ([6]; Preemergence, 125 g ai/ha) of the same compound?
**A.** 0

**Q.** What about the “Plant response rating (0 to 100 scale), Velvetleaf” value ([6]; Preemergence, 500 g ai/ha) of the same compound?
**A.** 0

**Q.** What about the “Plant response rating (0 to 100 scale), Wheat” value ([7]; Postemergence, 125 g ai/ha) of the same compound?
**A.** 0

**Q.** And the “Plant response rating (0 to 100 scale), Wheat” value ([7]; Postemergence, 500 g ai/ha)?
**A.** 0

**Q.** And the “Wheat plant response rating (0 = no effect, 100 = complete control)” value ([7]; Preemergence, 125 g ai/ha)?
**A.** 0

**Q.** And the “Plant response rating (0 to 100 scale), Wheat” value ([7]; Preemergence, 500 g ai/ha)?
**A.** 0

**Q.** Which results are given for `Brc1cc(Br)cc(-c2n[nH]cc2C2(c3ccccc3)SCCS2)c1` [Compound 62]?
**A.** Plant response rating (0 to 100 scale), Barnyardgrass ([1]; Postemergence, 1000 g ai/ha): 0; Plant response rating (0 to 100 scale), Barnyardgrass ([1]; Preemergence, 1000 g ai/ha): 0; Plant response rating (0 to 100 scale), Corn (corn (Zea mays); Postemergence, 1000 g ai/ha): 0; Plant response rating (0 to 100 scale), Corn (corn (Zea mays); Preemergence, 1000 g ai/ha): 0; Plant response rating (0 to 100 scale), Foxtail, Giant ([2]; Postemergence, 1000 g ai/ha): 0; Plant response rating (0 to 100 scale), Foxtail, Giant ([2]; Preemergence, 1000 g ai/ha): 0; Plant response rating (0 to 100 scale), Crabgrass, Large ([3]; Postemergence, 1000 g ai/ha): 0; Plant response rating (0 to 100 scale), Crabgrass, Large ([3]; Preemergence, 1000 g ai/ha): 0; Plant response rating (0 to 100 scale), Pigweed ([5]; Postemergence, 1000 g ai/ha): 100; Plant response rating (0 to 100 scale), Pigweed ([5]; Preemergence, 1000 g ai/ha): 80; Plant response rating (0 to 100 scale), Velvetleaf ([6]; Postemergence, 1000 g ai/ha): 90; Plant response rating (0 to 100 scale), Velvetleaf ([6]; Preemergence, 1000 g ai/ha): 60; Plant response rating (0 to 100 scale), Wheat ([7]; Postemergence, 1000 g ai/ha): 0; Plant response rating (0 to 100 scale), Wheat ([7]; Preemergence, 1000 g ai/ha): 0
